Laboratory results as given in US20240043483A1, “TAU BIOSENSOR CELL LINES” (THE BOARD OF REGENTS OF THE UNIVERSITY OF TEXAS SYSTEM, priority 2020, published 2024).

What was measured:
Format in all cases: cell-based, human
[1] = test system: P301S v2L HEK biosensor cells; assay: Seeding assay, percent FRET positivity by flow cytometry, v2L biosensor cells
Text: A lentiviral FM5-YFP plasmid containing the tau segment 246 to 378 with the P301S mutation, was used as a template, where the human ubiquitin C (Ubc) promoter was replaced with a human cytomegalovirus (CMV) promoter, and the YFP sequence was replaced with a mCerulean 3 or mClover3 coding sequences (see FIGS. 1 and 2). The sequence linking the tau segment and the coding sequence of the fluorophore (Cer or Co) was optimized to the following sequence: GSAGSAAGSGEF (SEQ ID NO:41). Low passage HEK293T cells (P5) were thawed and passaged with antibiotic free media twice before being co-administration of lentivirus encoding tau RD(P301S)-Clo/Cer tau lentivirus. After four passages, single cells were cell sorted by FACS based on low or high signal for both mCerulean3 and mClover3, termed version 2 low (v2L) or version 2 high (v2H). Monoclonal colonies were expanded and characterized as described.
Wild-type full-length (2N4R) tau was synthesized and purified. […]
(§1) P301S4 or P301S v2L or v2H HEK biosensor cells were plated in 96-well plates at 20,000 cells per well 24 hours before treatment. dilutions of recombinant tau fibrils or brain homogenates in Opti-MEM (Thermo Fisher), 30 μl total volume, or immunoprecipitation eluents 120 μl total volume, were allowed to come to room temperature. […] After 48 hours, cells were trypsinized and fixed in 2% PFA and suspended in flow cytometry buffer (1×HBSS, 1% FBS, 1 mM EDTA). percent FRET positivity was determined of each well by flow cytometry.
(§2) The sensitivity of v2L and v2H cells was first compared to the original line. synthetic fibrils based on exposure of recombinant tau protein to heparin were created. The fibrils were incubated with cells in the absence or presence of Lipofectamine 2000 for 48 h and quantified the percentage of FRET-positive cells using flow cytometry to determine the lower limit of detection. […] In the absence of cationic lipid reagent, 1.6 pM tau were detected in v2L cells and 0.78 pM tau in v2H cells (FIGS. 5A and 5B). […]

[2] = test system: P301S v2H HEK biosensor cells; assay: Seeding assay, percent FRET positivity by flow cytometry, v2H biosensor cells; conditions: for lower limit of detection (LLD), lowest quantity producing FRET positivity statistically distinguishable from background: v2H, T-test p<0.05
[3] = test system: P301S v1 biosensor cells; assay: Seeding assay, percent FRET positivity by flow cytometry, v1 (original) biosensor cells; conditions: T-test p<0.05
Method: Wild-type full-length (2N4R) tau was synthesized and purified. 8 μM purified recombinant tau was incubated with 8 uM heparin and 10 mM DTT at 37 C for 48 h in 10 mM HEPES, 100 mM NaCL, PH 7.4. The quality of fibrils was verified by transmission electron microscopy.
as §1, §2

[4] = test system: HEK biosensor cells; assay: Immunoprecipitation from spiked control CSF followed by seeding assay; conditions: 1 ml control CSF spiked
Method: 50 μl of Dynabeads Protein A (Thermo Fisher) were washed per the manufacturer protocol and incubated with 10 μg of polyclonal antibody (TauA, Diamond Lab) against the first microtubule-binding repeat of tau for 1 hour at room temperature. washed beads were then added to 1 or 5 ml of human CSF and incubated with rotation overnight at 4° C. Captured proteins were eluted in low pH elution buffer (Pierce) and neutralized the buffer with 1:10 1M Tris pH 8.5 with a final volume of 120 μl.
as §1
To determine the lower limit of detection of tau seeds in CSF, control CSF were spiked with small quantities of AD frontal cortex protein (brain AD1) or recombinant tau fibrils. the AD seeds were concentrated and purified using a rabbit polyclonal antibody directed against tau RD (TauA).

## recombinant tau fibrils: Wild-type full-length (2N4R) recombinant tau incubated with heparin and DTT at 37 C for 48 h to form fibrils
[1]; v2L cells, absence of cationic lipid reagent, FIGS. 5A and 5B
  tau detected (lower limit of detection): 1.6 pM
[1]; v2L cells, presence of Lipofectamine 2000, 48 h, FIGS. 4A and 4B
  lower limit of detection (detected, monomer equivalent): 10 fM
[1]; v2L lines versus original biosensor line
  sensitivity versus the original line: approximately 10 fold
[2]; v2H cells, absence of cationic lipid reagent, FIGS. 5A and 5B
  tau detected (lower limit of detection): 0.78 pM
[2]; v2H cells, presence of Lipofectamine 2000, 48 h, FIGS. 4A and 4B
  lower limit of detection (detected, monomer equivalent): 32 aM
[2]; v2H line versus original biosensor line
  sensitivity versus the original biosensor cell line: more than 300 fold
[2]; Lipofectamine seeding
  lower limit of detection (LLD), lowest quantity producing FRET positivity statistically distinguishable from background: 32 amol per sample
[2]; naked seeding
  lower limit of detection (LLD), lowest quantity producing FRET positivity statistically distinguishable from background: 0.78 pmol
[3]; v1, Lipofectamine seeding
  lower limit of detection (LLD), lowest quantity producing FRET positivity statistically distinguishable from background: 10 fmol per sample
[3]; v1, naked seeding
  lower limit of detection (LLD), lowest quantity producing FRET positivity statistically distinguishable from background: 1.6 pmol
[4]; IP with TauA antibody, FIG. 7C
  seeding activity detected in spiked CSF after IP, lowest level (monomer equivalent): 100 attomolar
[4]; IP, FIG. 7
  seeding detected from spiked samples down to (tau monomer equivalent): 100 attomoles
